Measured values reported in patent US20190076384A1, “METHODS FOR TREATING UREA CYCLE DISORDERS” (priority 2017, published 2019).
Where two headings read alike, the source gives them in different places.

Legend:
[1] = target: T1, CYP2C8 (Homo sapiens, UniProt P10632); assay: In vitro CYP inhibition study, human liver microsomes, CYP2C8; type: in vitro ADME; details: for % Inhibition: Taxol 6α-hydroxylase, 20.7 mM (2.818 mg/ml)
T1 construct: from tissue; host or cells: human liver microsomes
T1 sequence (P10632 1-490): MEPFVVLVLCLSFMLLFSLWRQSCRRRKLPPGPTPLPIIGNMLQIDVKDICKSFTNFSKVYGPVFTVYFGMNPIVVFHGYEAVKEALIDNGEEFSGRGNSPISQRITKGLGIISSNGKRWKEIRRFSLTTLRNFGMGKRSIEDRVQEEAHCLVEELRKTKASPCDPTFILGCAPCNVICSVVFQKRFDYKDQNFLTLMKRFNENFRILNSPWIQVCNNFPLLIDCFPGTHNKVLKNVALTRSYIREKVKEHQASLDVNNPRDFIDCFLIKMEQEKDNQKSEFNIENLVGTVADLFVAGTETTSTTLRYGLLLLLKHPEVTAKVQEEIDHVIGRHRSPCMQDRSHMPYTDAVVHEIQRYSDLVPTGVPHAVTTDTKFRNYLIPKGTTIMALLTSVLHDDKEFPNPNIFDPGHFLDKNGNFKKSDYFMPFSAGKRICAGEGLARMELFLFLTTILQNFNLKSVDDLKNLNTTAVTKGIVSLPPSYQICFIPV

[2] = target: T2, CYP1A2 (Homo sapiens, UniProt P05177); type: in vitro ADME; details: for % Inhibition: 7-ethoxyresorufin-O-deethylase, 20.7 mM (2.818 mg/ml)
T2 construct: from tissue; host or cells: human liver microsomes
T2 sequence (P05177 1-516): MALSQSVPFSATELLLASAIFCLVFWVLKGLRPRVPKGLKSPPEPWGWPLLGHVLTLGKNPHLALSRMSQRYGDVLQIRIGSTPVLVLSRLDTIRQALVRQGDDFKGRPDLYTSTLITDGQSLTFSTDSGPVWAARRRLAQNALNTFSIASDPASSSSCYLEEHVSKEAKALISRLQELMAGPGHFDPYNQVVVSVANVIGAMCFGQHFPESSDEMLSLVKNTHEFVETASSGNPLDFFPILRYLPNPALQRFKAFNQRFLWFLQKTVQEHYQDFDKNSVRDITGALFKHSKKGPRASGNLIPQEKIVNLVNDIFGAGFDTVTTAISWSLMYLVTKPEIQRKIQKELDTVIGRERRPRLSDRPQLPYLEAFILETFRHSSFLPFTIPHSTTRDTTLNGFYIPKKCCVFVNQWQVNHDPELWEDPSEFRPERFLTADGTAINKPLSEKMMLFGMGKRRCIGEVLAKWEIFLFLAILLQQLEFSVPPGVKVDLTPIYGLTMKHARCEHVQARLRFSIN

[3] = target: CYP2D6 (Homo sapiens, UniProt P10635); details: for % Inhibition: Bufuralol 1′-hydroxylase, 20.7 mM (2.818 mg/ml)
[4] = target: T3, CYP2C9 (Homo sapiens, UniProt P11712); details: for % Inhibition: Diclofenac 4′-hydroxylase, 20.7 mM (2.818 mg/ml)
[5] = test system: CYP3A4/5; assay: Induction of CYP3A4/5 in cultured human hepatocytes; details: for Relative potency (%): PAA 20.7 mM; for Fold induction: PAA 20.7 mM (concentration of maximum fold induction)
[6] = test system: CYP3A4/5; type: in vitro ADME, human; details: for % Inhibition: 20.7 mM (2.818 mg/ml)
[7] = target: T4, CYP2C19 (Homo sapiens, UniProt P33261); type: in vitro ADME; details: for % Inhibition: S-Mephenytoin 4′-hydroxylase, 20.7 mM (2.818 mg/ml)
T4 construct: from tissue; host or cells: human liver microsomes

[8] = target: T3, CYP2C9; assay: In vitro CYP inhibition study, human liver microsomes, CYP2C9
[9] = at a concentration higher than the observed plasma concentrations

Sequence of CYP2D6 (P10635 whole entry): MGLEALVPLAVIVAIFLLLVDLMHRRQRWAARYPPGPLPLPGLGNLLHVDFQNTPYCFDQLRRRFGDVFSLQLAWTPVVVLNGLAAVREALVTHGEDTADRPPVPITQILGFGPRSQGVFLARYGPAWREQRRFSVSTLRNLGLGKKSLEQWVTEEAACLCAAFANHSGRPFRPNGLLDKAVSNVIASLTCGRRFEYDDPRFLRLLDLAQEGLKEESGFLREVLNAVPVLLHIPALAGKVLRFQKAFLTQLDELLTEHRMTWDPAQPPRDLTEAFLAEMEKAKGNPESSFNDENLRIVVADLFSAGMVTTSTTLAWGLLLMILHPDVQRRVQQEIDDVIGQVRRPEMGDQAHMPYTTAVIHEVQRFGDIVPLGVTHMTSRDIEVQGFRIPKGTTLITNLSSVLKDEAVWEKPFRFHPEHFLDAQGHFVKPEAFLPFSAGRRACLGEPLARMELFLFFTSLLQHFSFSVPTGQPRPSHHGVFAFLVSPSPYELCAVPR
T3 sequence (P11712 whole entry): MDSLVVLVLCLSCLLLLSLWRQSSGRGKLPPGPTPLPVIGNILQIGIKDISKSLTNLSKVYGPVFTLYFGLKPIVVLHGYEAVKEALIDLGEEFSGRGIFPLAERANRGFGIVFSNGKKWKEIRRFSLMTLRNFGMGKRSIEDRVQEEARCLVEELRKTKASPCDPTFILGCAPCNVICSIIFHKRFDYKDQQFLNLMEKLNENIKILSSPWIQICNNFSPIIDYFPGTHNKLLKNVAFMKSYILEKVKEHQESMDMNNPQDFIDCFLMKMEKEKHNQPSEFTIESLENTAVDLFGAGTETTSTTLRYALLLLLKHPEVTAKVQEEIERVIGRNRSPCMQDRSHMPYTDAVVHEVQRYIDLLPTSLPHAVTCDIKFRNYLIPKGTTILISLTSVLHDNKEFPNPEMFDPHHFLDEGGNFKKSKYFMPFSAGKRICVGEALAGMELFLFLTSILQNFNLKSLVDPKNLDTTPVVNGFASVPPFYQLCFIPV
T4 sequence (P33261 whole entry): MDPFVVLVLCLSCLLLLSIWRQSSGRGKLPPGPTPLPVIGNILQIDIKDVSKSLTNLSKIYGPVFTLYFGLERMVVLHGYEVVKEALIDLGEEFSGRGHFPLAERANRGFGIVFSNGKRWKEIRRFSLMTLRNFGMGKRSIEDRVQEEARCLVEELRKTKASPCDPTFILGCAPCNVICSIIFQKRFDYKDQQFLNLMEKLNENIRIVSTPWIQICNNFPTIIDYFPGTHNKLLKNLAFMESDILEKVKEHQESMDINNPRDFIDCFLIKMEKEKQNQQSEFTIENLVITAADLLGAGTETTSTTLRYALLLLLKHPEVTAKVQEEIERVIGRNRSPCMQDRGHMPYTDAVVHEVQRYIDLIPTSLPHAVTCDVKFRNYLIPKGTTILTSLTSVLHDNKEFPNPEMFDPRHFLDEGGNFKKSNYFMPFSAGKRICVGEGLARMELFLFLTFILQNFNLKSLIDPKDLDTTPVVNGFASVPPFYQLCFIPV

Substance: phenylacetate [PAA]
- % Inhibition ([1]; pre-incubation time 0 min): 50%
- % Inhibition ([1]; pre-incubation time 30 min): 49%
- inhibition of CYP2C8 (in words) ([1]; at 20.7 mM): inhibited
- % Inhibition ([2]; pre-incubation time 0 min): 58%
- % Inhibition ([2]; pre-incubation time 30 min): 47%
- inhibition of CYP1A2 (in words) ([2]; at 20.7 mM): inhibited
- % Inhibition ([3]; pre-incubation time 0 min): 49%
- % Inhibition ([3]; pre-incubation time 30 min): 57%
- inhibition of CYP2D6 (in words) ([3]; at 20.7 mM): inhibited
- % Inhibition ([4]; pre-incubation time 0 min): 47%
- % Inhibition ([4]; pre-incubation time 30 min): 44%
- inhibition of CYP2C9 (in words) ([4]; at 20.7 mM): inhibited
- effect on CYP2C9 (in words) [4, 9]: inhibitory effect
- [I]/Ki ratio, CYP2C9 ([4]; based on mean peak PAA concentration in UCD patients): < 0.1
- induction of CYP3A4/5 ([5]; cultured human hepatocytes, PAA): < 1.8 fold
- Relative potency (%) ([5]; donor Hu0793): 13.1%
- Fold induction ([5]; donor Hu0793): 1.4 fold
- Relative potency (%) ([5]; donor Hu4156): 18.2%
- Fold induction ([5]; donor Hu4156): 1.7 fold
- % Inhibition ([6]; Midazolam 1′-hydroxylase, pre-incubation time 0 min): 63%
- % Inhibition ([6]; Midazolam 1′-hydroxylase, pre-incubation time 30 min): 65%
- % Inhibition ([6]; Testosterone 6β-hydroxylase, pre-incubation time 0 min): 60%
- % Inhibition ([6]; Testosterone 6β-hydroxylase, pre-incubation time 30 min): 63%
- inhibition of CYP3A4/5 (in words) ([6]; at 20.7 mM): inhibited
- effect on CYP3A4 (in words) [6, 9]: inhibitory effect
- % Inhibition ([7]; pre-incubation time 0 min): 37%
- % Inhibition ([7]; pre-incubation time 30 min): 37%
- inhibition of CYP2C19 (in words) ([7]; at 20.7 mM): inhibited
- Ki [8]: 15.1 mM
